Data taken from US20250206722A1, “SMALL MOLECULE INHIBITORS OF TEA DOMAIN FAMILY MEMBERS” (The Scripps Research Institute, priority 2022, published 2025).

Assays:
Type in all cases: cell-based
NCI-H226 cells = test: NCI-H226 proliferation assay (in house); settings: Homo sapiens, 120 h, 5 days, Cell TiterGlo, 20-point 1:2 dilution from 20 μM
Procedure, shortened: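 Cells in RPMI 1640 + 10% FBS, 500 per well, dosed after 24 h with 20-point 1:2 dilutions from 20 μM (final), in triplicate. After 5 days at 37 °C, 5% CO2, viability read by CellTiter-Glo luminescence.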

[1] = system: transcriptional activity of TEADs; test: TEAD reporter assay (MCF7 TEAD-LUC reporter cells); settings: Homo sapiens, 24 hours, BrightGlo luminescence
Procedure, shortened: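 MCF7 TEAD-LUC reporter cells were plated at 5,000/well and after 24 h treated with a 20-point 1:2 series from 20 μM final, in triplicate. Luciferase was read by BrightGlo luminescence after 24 h exposure at 37 °C.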

IMR32 cells = test: IMR32 cytotoxicity assay; settings: Homo sapiens, IMR-32, 72 h, 3 days, Cell TiterGlo
Experimental: IMR32 cells were obtained from American Type Culture Collection (ATCC, CCL-127) and cultured in DMEM (Corning, 10-013-CV) supplemented with 10% fetal bovine serum (Gibco, 10438-026) and 1% penicillin-streptomycin (Gibco, 15070063). Cells were trypsinized, resuspended in growth medium, and diluted to a concentrated of 20,000 cells/mL. 1,000 cells, 50 μL of cell suspension, per well were then plated in a white 384-well plate (Corning) and incubated at 37° C., 5% CO2. After 24 hours incubation, 100 nL of test compounds in DMSO, 20-point 1:2 dilution starting from 20 μM (final concentration) in triplicate, were transferred to each well using an Agilent Bravo instrument outfitted with a pintool head. Cells were incubated at 37° C., 5% CO2 for 3 days followed by the addition of 30 μL of Cell TiterGlo (Promega; diluted 1:6 in water) to each well and luminescence values recorded using an EnVision plate reader. […]

SMILES	IC50 (NCI-H226 cells) [µM]	IC50 [1] [nM]	IC50 (IMR32 cells) [nM]
C=CC(=O)N1[C@@H]2CC[C@H]1CN(c1nccnc1Nc1ccc(C(F)(F)F)cc1)C2 [Example 12, 1-((1R,5S)-3-(3-((4-(trifluoromethyl)phenyl)amino)pyrazin-2-yl)-3,8-diazabicyclo[3.2.1]octan-8-yl)prop-2-en-1-one]	1.16	491	10000
C=CC(=O)N1CCN(c2nccnc2Nc2ccc(C(F)(F)F)cc2)C[C@H]1C [Example 13, (R)-1-(2-methyl-4-(3-((4-(trifluoromethyl)phenyl)amino)pyrazin-2-yl)piperazin-1-yl)prop-2-en-1-one]	0.0159	3.48	> 10000
C=CC(=O)N1CCN(c2nccnc2Nc2ccc(C(F)(F)F)cc2)C[C@@H]1C [Example 14, (S)-1-(2-methyl-4-(3-((4-(trifluoromethyl)phenyl)amino)pyrazin-2-yl)piperazin-1-yl)prop-2-en-1-one]	0.0246	2.94	> 10000
C=CC(=O)N1CCN(c2nccnc2Nc2ccc(C(F)(F)F)cc2)C[C@@H]1CO [Example 15, (R)-1-(2-(hydroxymethyl)-4-(3-((4-(trifluoromethyl)phenyl)amino)pyrazin-2-yl)piperazin-1-yl)prop-2-en-1-one]	> 20	5000	10000
C=CC(=O)N1CCN(c2nccnc2Nc2ccc(C(F)(F)F)cc2)C[C@H]1CO [Example 16, (S)-1-(2-(hydroxymethyl)-4-(3-((4-(trifluoromethyl)phenyl)amino)pyrazin-2-yl)piperazin-1-yl)prop-2-en-1-one]	> 20	2500	5000
C=CC(=O)N1CCN(c2nccnc2Nc2ccc(C(F)(F)F)cc2)C[C@H]1CC#N [Example 21, (R)-2-(1-acryloyl-4-(3-((4-(trifluoromethyl)phenyl)amino)pyrazin-2-yl)piperazin-2-yl)acetonitrile]	0.32	43	> 10000
C=CC(=O)N1CCN(c2nccnc2Nc2ccc(C(F)(F)F)cc2)C[C@@H]1CC#N [Example 22, (S)-2-(1-acryloyl-4-(3-((4-(trifluoromethyl)phenyl)amino)pyrazin-2-yl)piperazin-2-yl)acetonitrile]	0.27	25.9	15000
C=CC(=O)N1CCN(c2nccnc2Nc2ccc(C(F)(F)F)cc2)C(C)C1 (stereo not drawn) [Example 24, 1-(3-methyl-4-(3-((4-(trifluoromethyl)phenyl)amino)pyrazin-2-yl)piperazin-1-yl)prop-2-en-1-one]	0.0199	41	2500
C=CC(=O)N1CC=C(c2nccnc2Nc2ccc(C(F)(F)F)cc2)CC1 [Example 25, 1-[4-(3-{[4-(trifluoromethyl)phenyl]amino}pyrazin-2-yl)-3,6-dihydro-2H-pyridin-1-yl]prop-2-en-1-one]	0.006	2.1	15500
C=CC(=O)N1CCCN(c2nccnc2Nc2ccc(C(F)(F)F)cc2)CC1 [Example 27, 1-(4-(3-((4-(trifluoromethyl)phenyl)amino)pyrazin-2-yl)-1,4-diazepan-1-yl)prop-2-en-1-one]	0.164	29.7	10000
C=CC(=O)N1CCN(c2nccnc2-c2ccc(C(F)(F)F)cc2)CC1 [Example 28, 1-(4-(3-(4-(trifluoromethyl)phenyl)pyrazin-2-yl)piperazin-1-yl)prop-2-en-1-one]	0.0904	11.4	> 10000
C=CC(=O)N1CCN(c2nccnc2-c2cccc(C(F)(F)F)c2)CC1 [Example 29, 1-(4-(3-(3-(trifluoromethyl)phenyl)pyrazin-2-yl)piperazin-1-yl)prop-2-en-1-one]	> 20	> 20000	> 20000
C=CC(=O)N1CCN(c2nccnc2Nc2cccc(C(F)(F)F)c2)CC1 [Example 30, 1-(4-(3-((3-(trifluoromethyl)phenyl)amino)pyrazin-2-yl)piperazin-1-yl)prop-2-en-1-one]	> 1	19.9	> 10000
C=CC(=O)N1CCN(c2nccnc2Nc2ccc(Cl)cc2)CC1 [Example 32, 1-(4-(3-((4-chlorophenyl)amino)pyrazin-2-yl)piperazin-1-yl)prop-2-en-1-one]	0.059	4.67	20000
C=CC(=O)N1CCN(c2nccnc2Nc2ccc(F)cc2)CC1 [Example 33, 1-(4-(3-((4-fluorophenyl)amino)pyrazin-2-yl)piperazin-1-yl)prop-2-en-1-one]	0.101	10.2	> 20000
C=CC(=O)N1CCN(c2nccnc2Nc2ncc(C(F)(F)F)cn2)CC1 [Example 41, 1-(4-(3-((5-(trifluoromethyl)pyrimidin-2-yl)amino)pyrazin-2-yl)piperazin-1-yl)prop-2-en-1-one]	0.198	23	> 20000
C=CC(=O)N1CCN(c2nccnc2Nc2cnc(C(F)(F)F)nc2)CC1 [Example 52, 1-(4-(3-((2-(trifluoromethyl)pyrimidin-5-yl)amino)pyrazin-2-yl)piperazin-1-yl)prop-2-en-1-one]	0.128	10.5	> 20000
C=CC(=O)N1CCN(c2nccnc2NC2CCC(F)(F)CC2)CC1 [Example 66, 1-(4-(3-((4,4-difluorocyclohexyl)amino)pyrazin-2-yl)piperazin-1-yl)prop-2-en-1-one]	0.347	19.2	> 20000
C=CC(=O)N1CCN(c2nccnc2Oc2ccc(C(F)(F)F)cc2)CC1 [Example 69, 1-(4-(3-(4-(trifluoromethyl)phenoxy)pyrazin-2-yl)piperazin-1-yl)prop-2-en-1-one]	0.0115	0.9	> 20000
C=CC(=O)N1CCN(c2nccnc2OC2CCC(F)(F)CC2)CC1 [Example 93, 1-(4-{3-[(4,4-difluorocyclohexyl)oxy]pyrazin-2-yl}piperazin-1-yl) prop-2-en-1-one]	0.078	7	> 20000
C=CC(=O)N1CCN(c2nccnc2N2CC(c3ccccc3)C2)CC1 [Example 106, 1-(4-(3-(3-phenylazetidin-1-yl)pyrazin-2-yl)piperazin-1-yl)prop-2-en-1-one]	20	7	> 20000
C=CC(=O)N1CCN(c2ccnc(Nc3ccc(C(F)(F)F)cc3)n2)CC1 [Example 123, 1-[4-(2-{[4-(trifluoromethyl)phenyl]amino}pyrimidin-4-yl)piperazin-1-yl]prop-2-en-1-one]	0.91	279	4870
C=CC(=O)N1CCC(N(C)c2ccnc(Nc3ccc(C(F)(F)F)cc3)n2)CC1 [Example 124, 1-(4-(methyl(2-((4-(trifluoromethyl)phenyl)amino)pyrimidin-4-yl)amino)piperidin-1-yl)prop-2-en-1-one]	4.64	331	4200
C=CC(=O)N1CCN(c2nccc(Nc3ccc(C(F)(F)F)cc3)n2)CC1 [Example 125, 1-[4-(4-{[4-(trifluoromethyl)phenyl]amino}pyrimidin-2-yl)piperazin-1-yl]prop-2-en-1-one]	2.52	258	7060
C=CC(=O)N1CCN(c2ncccc2Nc2ccc(C(F)(F)F)cc2)CC1 [Example 134, 1-[4-(3-{[4-(trifluoromethyl)phenyl]amino}pyridin-2-yl)piperazin-1-yl]prop-2-en-1-one]	0.023	2.24	> 10000
C=CC(=O)N1CCN(c2cccnc2Nc2ccc(C(F)(F)F)cc2)CC1 [Example 143, 1-[4-(2-{[4-(trifluoromethyl)phenyl]amino}pyridin-3-yl)piperazin-1-yl]prop-2-en-1-one]	0.017	5	20000
CN(C)C/C=C/C(=O)N1CCN(c2nccnc2Nc2ccc(C(F)(F)F)cc2)CC1 [Example 167, 4-(dimethylamino)-1-(4-(3-((4-(trifluoromethyl)phenyl)amino)pyrazin-2-yl)piperazin-1-yl)but-2-en-1-one]	0.108	1000	10000
CC(=O)N1CCN(c2nccnc2Nc2ccc(C(F)(F)F)cc2)CC1 [Example 168, 1-(4-(3-((4-(trifluoromethyl)phenyl)amino)pyrazin-2-yl)piperazin-1-yl)ethan-1-one]	> 10	487	> 20000
O=C(C(F)Cl)N1CCN(c2nccnc2Nc2ccc(C(F)(F)F)cc2)CC1 (stereo not drawn) [Example 169, 2-chloro-2-fluoro-1-(4-(3-((4-(trifluoromethyl)phenyl)amino)pyrazin-2-yl)piperazin-1-yl)ethan-1-one]	0.037	13.1	> 10000
